Data from paper PMC10105652, “Resistance to ceftazidime-avibactam in a KPC-2–producing Klebsiella pneumoniae caused by the extended-spectrum beta-lactamase VEB-25” (European Journal of Clinical Microbiology & Infectious …, 2023).
Read-outs that look alike come from different tables or passages of the source.

Molecular target: T1, VEB-1 (Escherichia coli, UniProt Q7BVU7)
T1 construct: gene blaVEB; natural allele amplified and cloned in pCR-Blunt II-TOPO, E. coli Top10; crude extract
Test: cephalothin hydrolysis, UV […] nm, crude extract
Type: biochemical
Settings: 100 µM cephalothin, 100 mM sodium phosphate pH 7.0, 3 min preincubation

## NC(=O)[C@@H]1CC[C@@H]2CN1C(=O)N2OS(=O)(=O)O [avibactam]
read-out: AVI
  IC50: 900 nM

## O=C(O)[C@H]1/C(=C/CO)O[C@@H]2CC(=O)N21 [clavulanic acid]
read-out: CLA
  IC50: 50 nM

## O=C(NC1CCNCC1)[C@@H]1CC[C@@H]2CN1C(=O)N2OS(=O)(=O)O [relebactam]
read-out: REL
  IC50: 2400 nM

## C[C@]1(Cn2ccnn2)[C@H](C(=O)O)N2C(=O)C[C@H]2S1(=O)=O [tazobactam]
read-out: CLA
  IC50: 50 nM

## O=C(O)C[C@@H]1CC[C@H](NC(=O)Cc2cccs2)B(O)O1 [vaborbactam]
read-out: VAB
  IC50: 1100 nM
